Source: patent US8252832B2, “Kinesin inhibitors as cancer therapeutics” (Novartis AG, priority 2007, dated 2012)
Where two headings read alike, the source gives them in different places.

Tested on: panel of cell lines derived from hematological malignancies
Experiment: Cell survival assay, CellTiter-Glo readout after 48 hours, hematological panel
Assay type: cell-based
Parameters: key to Differential: panel average log(GI50) minus cell line log(GI50); positive = more sensitive
Experimental: Compound IIa was tested against a panel of cell lines derived from hematological malignancies in a cell survival assay using CellTiter-Glo® as a readout after 48 hours in the presence of compound. Table 18 lists the type of hematological malignancy, the name of the sample, its GI50 (concentration needed to achieve 50% growth inhibition) value in the assay, the logarithm of the GI50 (log(GI50), and the relative sensitivity of each sample (Differential). The differential is calculated by subtracting the log(GI50) for each cell line from the average log(GI50) across the entire panel (0.236 in this case); a positive value indicates a sample that is more sensitive than average, whereas a negative value indicates a sample that is less sensitive than average.

SMILES: CC(C)(C)[C@H](c1nc(-c2cc(F)ccc2F)cn1Cc1ccccc1)N(CC[C@H](N)CF)C(=O)CO [Compound IIa]
- Differential (697 (ALL)): 0.613
- GI50 (48 h, 697 (ALL), read-out: GI50): 0.11 nM
- GI50 (48 h, 697 (ALL), read-out: Log(GI50) (converted)): 0.105 nM
- GI50 (48 h, AML-193 (AML), read-out: GI50): 0.11 nM
- GI50 (48 h, AML-193 (AML), read-out: Log(GI50) (converted)): 0.11 nM
- GI50 (48 h, DEL (NHL), read-out: GI50): 0.28 nM
- GI50 (48 h, DEL (NHL), read-out: Log(GI50) (converted)): 0.283 nM
- GI50 (48 h, H929-Luc (MM), read-out: GI50): 1.69 nM
- GI50 (48 h, H929-Luc (MM), read-out: Log(GI50) (converted)): 1.69 nM
- GI50 (48 h, HEL92 (AML), read-out: GI50): 0.49 nM
- GI50 (48 h, HEL92 (AML), read-out: Log(GI50) (converted)): 0.49 nM
- GI50 (48 h, HH (NHL), read-out: GI50): 0.22 nM
- GI50 (48 h, HH (NHL), read-out: Log(GI50) (converted)): 0.215 nM
- GI50 (48 h, KMS11-Luc (MM), read-out: GI50): 0.29 nM
- GI50 (48 h, KMS11-Luc (MM), read-out: Log(GI50) (converted)): 0.29 nM
- GI50 (48 h, KMS12 (MM), read-out: GI50): 0.29 nM
- GI50 (48 h, KMS12 (MM), read-out: Log(GI50) (converted)): 0.29 nM
- GI50 (48 h, KMS18-Luc (MM), read-out: GI50): 0.52 nM
- GI50 (48 h, KMS18-Luc (MM), read-out: Log(GI50) (converted)): 0.518 nM
- GI50 (48 h, Karpas-299-Luc (NHL), read-out: GI50): 20.2 nM
- GI50 (48 h, Karpas-299-Luc (NHL), read-out: Log(GI50) (converted)): 20.2 nM
- GI50 (48 h, LP1 (MM), read-out: GI50): 0.21 nM
- GI50 (48 h, LP1 (MM), read-out: Log(GI50) (converted)): 0.205 nM
- GI50 (48 h, MHH-CALL-2 (ALL), read-out: GI50): 0.32 nM
- GI50 (48 h, MHH-CALL-2 (ALL), read-out: Log(GI50) (converted)): 0.315 nM
- GI50 (48 h, MHH-CALL-3 (ALL), read-out: GI50): 0.2 nM
- GI50 (48 h, MHH-CALL-3 (ALL), read-out: Log(GI50) (converted)): 0.2 nM
- GI50 (48 h, MM1-S-Luc (MM), read-out: GI50): 0.23 nM
- GI50 (48 h, MM1-S-Luc (MM), read-out: Log(GI50) (converted)): 0.23 nM
- GI50 (48 h, MOLM13-Luc (AML), read-out: GI50): 0.23 nM
- GI50 (48 h, MOLM13-Luc (AML), read-out: Log(GI50) (converted)): 0.226 nM
- GI50 (48 h, MUTZ-5 (ALL), read-out: GI50): 10 nM
- GI50 (48 h, MUTZ-5 (ALL), read-out: Log(GI50) (converted)): 10 nM
- GI50 (48 h, MV4, 11Luc (AML), read-out: GI50): 0.11 nM
- GI50 (48 h, MV4, 11Luc (AML), read-out: Log(GI50) (converted)): 0.105 nM
- GI50 (48 h, Mean across the entire panel, read-out: GI50): 0.43 nM
- GI50 (48 h, Mean across the entire panel, read-out: Log(GI50) (converted)): 0.431 nM
- GI50 (48 h, NALM-19 (ALL), read-out: GI50): 0.19 nM
- GI50 (48 h, NALM-19 (ALL), read-out: Log(GI50) (converted)): 0.19 nM
- GI50 (48 h, REH (ALL), read-out: GI50): 0.18 nM
- GI50 (48 h, REH (ALL), read-out: Log(GI50) (converted)): 0.18 nM
- GI50 (48 h, RL (NHL), read-out: GI50): 20 nM
- GI50 (48 h, RL (NHL), read-out: Log(GI50) (converted)): 20 nM
- GI50 (48 h, SEM-Luc (ALL), read-out: GI50): 0.15 nM
- GI50 (48 h, SEM-Luc (ALL), read-out: Log(GI50) (converted)): 0.15 nM
- GI50 (48 h, SR (NHL), read-out: GI50): 0.11 nM
- GI50 (48 h, SR (NHL), read-out: Log(GI50) (converted)): 0.11 nM
- GI50 (48 h, TANOUE (ALL), read-out: GI50): 10 nM
- GI50 (48 h, TANOUE (ALL), read-out: Log(GI50) (converted)): 10 nM
- GI50 (48 h, YT (ALL), read-out: GI50): 10 nM
- GI50 (48 h, YT (ALL), read-out: Log(GI50) (converted)): 10 nM
- GI50 (48 h, hematological panel, read-out: average log(GI50) across the entire panel (converted)): 1.72 nM
- Differential (AML-193 (AML)): 0.593
- Differential (CCRF-CEM (ALL)): 0.419
- Differential (CCRF-HSB-2 (ALL)): 0.367
- Differential (DEL (NHL)): 0.182
- Differential (DOHH2 (NHL)): 0.263
- Differential (H929 (MM)): 0.109
- Differential (H929-Luc (MM)): −0.593
- Differential (HDLM-2 (HL)): 0.555
- Differential (HEL92 (AML)): −0.056
- Differential (HH (NHL)): 0.301
- Differential (HL60 (AML)): 0.416
- Differential (HL60-Luc (AML)): −0.072
- GI50 (HL-60-Luc, 48 h, HL60-Luc (AML), read-out: GI50): 0.51 nM
- GI50 (HL-60-Luc, 48 h, HL60-Luc (AML), read-out: Log(GI50) (converted)): 0.508 nM
- GI50 (Homo sapiens, CCRF-CEM, 48 h, CCRF-CEM (ALL), read-out: GI50): 0.16 nM
- GI50 (Homo sapiens, CCRF-CEM, 48 h, CCRF-CEM (ALL), read-out: Log(GI50) (converted)): 0.164 nM
- GI50 (Homo sapiens, CCRF-HSB-2, 48 h, CCRF-HSB-2 (ALL), read-out: GI50): 0.19 nM
- GI50 (Homo sapiens, CCRF-HSB-2, 48 h, CCRF-HSB-2 (ALL), read-out: Log(GI50) (converted)): 0.185 nM
- GI50 (Homo sapiens, DOHH-2, 48 h, DOHH2 (NHL), read-out: GI50): 0.24 nM
- GI50 (Homo sapiens, DOHH-2, 48 h, DOHH2 (NHL), read-out: Log(GI50) (converted)): 0.235 nM
- GI50 (Homo sapiens, HDLM-2, 48 h, HDLM-2 (HL), read-out: GI50): 0.12 nM
- GI50 (Homo sapiens, HDLM-2, 48 h, HDLM-2 (HL), read-out: Log(GI50) (converted)): 0.12 nM
- GI50 (Homo sapiens, HL-60, 48 h, HL60 (AML), read-out: GI50): 0.17 nM
- GI50 (Homo sapiens, HL-60, 48 h, HL60 (AML), read-out: Log(GI50) (converted)): 0.165 nM
- GI50 (Homo sapiens, HuT78, 48 h, HuT78 (NHL), read-out: GI50): 0.28 nM
- GI50 (Homo sapiens, HuT78, 48 h, HuT78 (NHL), read-out: Log(GI50) (converted)): 0.275 nM
- GI50 (Homo sapiens, K562, 48 h, K562 (CML), read-out: GI50): 0.21 nM
- GI50 (Homo sapiens, K562, 48 h, K562 (CML), read-out: Log(GI50) (converted)): 0.209 nM
- GI50 (Homo sapiens, KARPAS-299, 48 h, Karpas-299 (NHL), read-out: GI50): 0.2 nM
- GI50 (Homo sapiens, KARPAS-299, 48 h, Karpas-299 (NHL), read-out: Log(GI50) (converted)): 0.2 nM
- GI50 (Homo sapiens, KARPAS-422, 48 h, Karpas-422 (NHL), read-out: GI50): 5.14 nM
- GI50 (Homo sapiens, KARPAS-422, 48 h, Karpas-422 (NHL), read-out: Log(GI50) (converted)): 5.14 nM
- GI50 (Homo sapiens, KM-H2, 48 h, KM-H2 (HL), read-out: GI50): 0.23 nM
- GI50 (Homo sapiens, KM-H2, 48 h, KM-H2 (HL), read-out: Log(GI50) (converted)): 0.233 nM
- GI50 (Homo sapiens, KMS-11, 48 h, KMS11 (MM), read-out: GI50): 0.48 nM
- GI50 (Homo sapiens, KMS-11, 48 h, KMS11 (MM), read-out: Log(GI50) (converted)): 0.483 nM
- GI50 (Homo sapiens, Kasumi 1, 48 h, Kasumi-1 (AML), read-out: GI50): 0.44 nM
- GI50 (Homo sapiens, Kasumi 1, 48 h, Kasumi-1 (AML), read-out: Log(GI50) (converted)): 0.44 nM
- GI50 (Homo sapiens, L-363, 48 h, L363 (MM), read-out: GI50): 0.13 nM
- GI50 (Homo sapiens, L-363, 48 h, L363 (MM), read-out: Log(GI50) (converted)): 0.13 nM
- GI50 (Homo sapiens, L-428, 48 h, L428 (HL), read-out: GI50): 20 nM
- GI50 (Homo sapiens, L-428, 48 h, L428 (HL), read-out: Log(GI50) (converted)): 20 nM
